One experiment deals with CCRF-CEM. Description: Cytotoxicity against human CCRF-CEM cells assessed as reduction in cell viability after 72 hrs by resazurin reduction assay. Type of experiment: functional, cell-based. A general note: Alamar Blue is a resazurin reagent that responds to reducing activity.
Experiment [1] deals with ADR5000 cell line. Kind of experiment: Cytotoxicity against human CEM/ADR5000 cells assessed as reduction in cell viability after 72 hrs by resazurin reduction assay. Type of experiment: functional, cell-based. The settings on record: ADR5000, 72 h.
Experiment [2] can be described thus: Resistance index, ratio of IC50 for human CEM/ADR5000 cells to IC50 for human CCRF-CEM cells. Type of experiment: functional.
The subject of experiment [3] is ADR5000 cell line. Description: Cytotoxicity against human CEM/ADR5000 cells assessed as reduction in cell viability at 400 uM after 72 hrs by resazurin reduction assay. Type of experiment: functional, cell-based.

Activity calls are given as the source filed them. The calls are words filed in the database; no cut-off is given here.

With `COC(=O)CC[C@@H](C)[C@H]1CC[C@H]2[C@@H]3[C@H](OC(C)=O)C[C@@H]4C[C@H](NC(=O)CCC(=O)O[C@@H]5O[C@@H]6O[C@@]7(C)CC[C@H]8[C@H](C)CC[C@@H]([C@H]5C)[C@@]68OO7)CC[C@]4(C)[C@H]3C[C@H](OC(C)=O)[C@]12C`, the IC50 – broadly, the point on the concentration scale where inhibition reaches its midpoint – in the experiment on CCRF-CEM amounted to 36 nM; in the experiment with ADR5000 cell line [1], 655 nM. The “Ratio IC50” value in experiment [2] amounted to 18.2.
Regarding `CC(=O)O[C@H]1C[C@H]2[C@@H]([C@H](OC(C)=O)C[C@@H]3CC(=O)CC[C@@]32C)[C@@H]2CC[C@H]([C@H](C)CCC(=O)OCCC[C@H]3O[C@@H]4O[C@@]5(C)CC[C@H]6[C@H](C)CC[C@@H]([C@H]3C)[C@@]46OO5)[C@@]12C`, the results for the IC50 in the experiment with CCRF-CEM and with ADR5000 cell line [1] were 192 nM and 7160 nM, respectively. The “Ratio IC50” value in experiment [2] is 37.3.
For `COC(=O)CC[C@@H](C)[C@H]1CC[C@H]2[C@@H]3[C@H](OC(C)=O)C[C@@H]4C[C@@H](NC(=O)CCC(=O)O[C@@H]5O[C@@H]6O[C@@]7(C)CC[C@H]8[C@H](C)CC[C@@H]([C@H]5C)[C@@]68OO7)CC[C@]4(C)[C@H]3C[C@H](OC(C)=O)[C@]12C`, in that order: 136 nM, 779 nM and 5.7.
For `COC(=O)CC[C@@H](C)[C@H]1CC[C@H]2[C@@H]3[C@H](OC(C)=O)C[C@@H]4C[C@H](OC(=O)CCC(=O)O[C@@H]5O[C@@H]6O[C@@]7(C)CC[C@H]8[C@H](C)CC[C@@H]([C@H]5C)[C@@]68OO7)CC[C@]4(C)[C@H]3C[C@H](OC(C)=O)[C@]12C`, in that order: 35 nM, 626 nM and 17.9.
On to `COC(=O)CC[C@@H](C)[C@H]1CC[C@H]2[C@@H]3[C@H](OC(C)=O)C[C@@H]4C[C@H](NC(=O)C[C@H]5O[C@@H]6O[C@@]7(C)CC[C@H]8[C@H](C)CC[C@@H]([C@H]5C)[C@@]68OO7)CC[C@]4(C)[C@H]3C[C@H](OC(C)=O)[C@]12C`, for which the results for the IC50 in the experiment on CCRF-CEM and in the experiment with ADR5000 cell line [1] were 19 nM and 345 nM, respectively. Moreover, the “Ratio IC50” value in experiment [2] amounted to 18.2.
`C[C@H]1[C@@H](CCCO)O[C@@H]2O[C@@]3(C)CC[C@H]4[C@H](C)CC[C@@H]1[C@@]24OO3`: the outcome with ADR5000 cell line [3] was inactive.
Take `COC(=O)CC[C@@H](C)[C@H]1CC[C@H]2[C@@H]3[C@H](OC(C)=O)C[C@@H]4C[C@H](OC(=O)C[C@H]5O[C@@H]6O[C@@]7(C)CC[C@H]8[C@H](C)CC[C@@H]([C@H]5C)[C@@]68OO7)CC[C@]4(C)[C@H]3C[C@H](OC(C)=O)[C@]12C`: the figures for the IC50 in the experiment on CCRF-CEM and with ADR5000 cell line [1] were 30 nM and 1250 nM, respectively. For the same compound, the “Ratio IC50” value in experiment [2] was 41.8.
Taken in the same sequence, the figures for `COC(=O)CC[C@@H](C)[C@H]1CC[C@H]2[C@@H]3[C@H](OC(C)=O)C[C@@H]4C[C@@H](OC(=O)C[C@H]5O[C@@H]6O[C@@]7(C)CC[C@H]8[C@H](C)CC[C@@H]([C@H]5C)[C@@]68OO7)CC[C@]4(C)[C@H]3C[C@H](OC(C)=O)[C@]12C` were 28 nM, 1290 nM and 46.1.
Taken in the same sequence, the figures for `COC(=O)CC[C@@H](C)[C@H]1CC[C@H]2[C@@H]3[C@H](OC(C)=O)C[C@@H]4C[C@@H](NC(=O)C[C@H]5O[C@@H]6O[C@@]7(C)CC[C@H]8[C@H](C)CC[C@@H]([C@H]5C)[C@@]68OO7)CC[C@]4(C)[C@H]3C[C@H](OC(C)=O)[C@]12C` were 49 nM, 560 nM and 11.4.
Take `COc1cccc2c1C(=O)c1c(O)c3c(c(O)c1C2=O)C[C@@](O)(C(=O)CO)C[C@@H]3O[C@H]1C[C@H](N)[C@H](O)[C@H](C)O1` [DOXORUBICIN]: the “Ratio IC50” value in experiment [2] came to 536.67.
In the case of `COC(=O)CC[C@@H](C)[C@H]1CC[C@H]2[C@@H]3[C@H](OC(C)=O)C[C@@H]4C[C@@H](OC(=O)CCC(=O)O[C@@H]5O[C@@H]6O[C@@]7(C)CC[C@H]8[C@H](C)CC[C@@H]([C@H]5C)[C@@]68OO7)CC[C@]4(C)[C@H]3C[C@H](OC(C)=O)[C@]12C`, the values for the IC50 in the experiment on CCRF-CEM and in the experiment on ADR5000 cell line [1] were 65 nM and 1180 nM, respectively. The “Ratio IC50” value in experiment [2] came out at 18.1.

Values taken from ChEMBL document CHEMBL4020737, “Synthesis and cytotoxic activity of new artemisinin hybrid molecules against human leukemia cells” (Bioorg Med Chem, 2017).
